Assay in all cases: two-electrode voltage clamp, Xenopus oocytes
Holding throughout (type): cell-based
Common to all, as to settings: pH 7.6 Ringer's buffer, -80 mV, co-expressed OfurOrco, agonist

One test concerns the target T1, OfurOR4 (Ostrinia furnacalis, UniProt A0A0E3VLP9).
T1 construct: gene OR4; full-length ORF from male antennal cDNA, untagged, in PT7TS; cRNA co-injected 1:1 with OfurOrco in Xenopus oocytes; naming of Yang et al. 2015 (group OR4 = OnubOR3 of Wanner/Leary); with Odorant receptor co-receptor (Orco)
T1 sequence (A0A0E3VLP9 1-422): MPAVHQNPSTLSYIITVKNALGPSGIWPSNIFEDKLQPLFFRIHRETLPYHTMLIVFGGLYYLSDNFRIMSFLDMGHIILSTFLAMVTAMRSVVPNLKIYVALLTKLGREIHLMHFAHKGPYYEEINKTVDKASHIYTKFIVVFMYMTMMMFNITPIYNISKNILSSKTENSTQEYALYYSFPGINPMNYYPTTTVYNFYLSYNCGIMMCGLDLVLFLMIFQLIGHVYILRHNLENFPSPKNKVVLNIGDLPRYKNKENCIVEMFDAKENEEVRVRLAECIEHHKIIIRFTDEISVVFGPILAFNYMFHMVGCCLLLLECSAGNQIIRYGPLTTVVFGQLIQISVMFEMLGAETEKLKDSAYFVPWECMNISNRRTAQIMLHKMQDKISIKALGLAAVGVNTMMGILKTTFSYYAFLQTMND
T1 sequence (A0A0E4B591 1-474 partner): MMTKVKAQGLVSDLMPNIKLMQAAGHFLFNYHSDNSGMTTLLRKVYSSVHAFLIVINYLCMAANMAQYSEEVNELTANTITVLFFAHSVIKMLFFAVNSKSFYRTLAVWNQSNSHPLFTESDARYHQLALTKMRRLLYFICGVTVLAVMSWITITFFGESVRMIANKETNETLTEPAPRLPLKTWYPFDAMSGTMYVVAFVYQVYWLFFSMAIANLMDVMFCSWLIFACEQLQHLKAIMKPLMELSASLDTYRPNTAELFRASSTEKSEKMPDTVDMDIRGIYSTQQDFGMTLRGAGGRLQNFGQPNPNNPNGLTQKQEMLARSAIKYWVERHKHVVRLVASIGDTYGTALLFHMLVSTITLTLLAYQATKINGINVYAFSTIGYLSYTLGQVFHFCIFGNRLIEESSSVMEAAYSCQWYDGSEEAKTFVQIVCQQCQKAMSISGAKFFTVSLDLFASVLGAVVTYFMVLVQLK

The next test addresses T2, OfurOR7 (Ostrinia furnacalis, UniProt M4NKX7).
T2 construct: gene OR7; full-length ORF from male antennal cDNA, untagged, in PT7TS; cRNA co-injected 1:1 with OfurOrco in Xenopus oocytes; naming of Yang et al. 2015; with Odorant receptor co-receptor (Orco)
T2 sequence (M4NKX7 1-428): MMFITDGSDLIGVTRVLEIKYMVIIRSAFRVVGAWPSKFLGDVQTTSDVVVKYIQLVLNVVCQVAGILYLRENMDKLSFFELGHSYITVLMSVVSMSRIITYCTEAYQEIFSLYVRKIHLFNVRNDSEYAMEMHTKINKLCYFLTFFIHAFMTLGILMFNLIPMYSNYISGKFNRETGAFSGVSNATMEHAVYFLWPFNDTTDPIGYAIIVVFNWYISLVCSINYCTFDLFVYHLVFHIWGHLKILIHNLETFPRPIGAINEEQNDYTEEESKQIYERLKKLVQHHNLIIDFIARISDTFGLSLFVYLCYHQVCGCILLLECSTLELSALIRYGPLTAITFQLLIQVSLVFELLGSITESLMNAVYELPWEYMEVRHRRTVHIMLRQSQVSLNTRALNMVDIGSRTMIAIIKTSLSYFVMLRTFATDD
T2 sequence (A0A0E4B591 1-474 partner): T1 sequence (A0A0E4B591 1-474 partner)

Another test addresses T3, OfurOR5b (Ostrinia furnacalis, UniProt M4NPQ0).
T3 construct: gene OR5b; full-length ORF from male antennal cDNA, untagged, in PT7TS; cRNA co-injected 1:1 with OfurOrco in Xenopus oocytes; with Odorant receptor co-receptor (Orco)
T3 sequence (M4NPQ0 1-424): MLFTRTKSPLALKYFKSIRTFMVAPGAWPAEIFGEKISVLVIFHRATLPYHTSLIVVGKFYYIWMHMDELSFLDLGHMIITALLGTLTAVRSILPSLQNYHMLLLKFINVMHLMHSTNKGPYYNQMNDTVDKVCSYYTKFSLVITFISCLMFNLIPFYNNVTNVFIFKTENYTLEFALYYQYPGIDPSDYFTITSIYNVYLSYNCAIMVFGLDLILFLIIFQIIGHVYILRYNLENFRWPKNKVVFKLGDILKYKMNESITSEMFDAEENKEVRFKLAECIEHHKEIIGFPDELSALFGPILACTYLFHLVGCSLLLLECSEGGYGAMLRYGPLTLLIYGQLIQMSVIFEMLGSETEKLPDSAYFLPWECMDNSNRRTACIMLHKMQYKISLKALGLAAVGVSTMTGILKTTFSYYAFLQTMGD
T3 sequence (A0A0E4B591 1-474 partner): T1 sequence (A0A0E4B591 1-474 partner)

In the next test the target is T4, OfurOR8 (Ostrinia furnacalis, UniProt A0A0E4B5G7).
T4 construct: gene OR8; full-length ORF from male antennal cDNA, untagged, in PT7TS; cRNA co-injected 1:1 with OfurOrco in Xenopus oocytes; naming of Yang et al. 2015; with Odorant receptor co-receptor (Orco)
T4 sequence (A0A0E4B5G7 1-437): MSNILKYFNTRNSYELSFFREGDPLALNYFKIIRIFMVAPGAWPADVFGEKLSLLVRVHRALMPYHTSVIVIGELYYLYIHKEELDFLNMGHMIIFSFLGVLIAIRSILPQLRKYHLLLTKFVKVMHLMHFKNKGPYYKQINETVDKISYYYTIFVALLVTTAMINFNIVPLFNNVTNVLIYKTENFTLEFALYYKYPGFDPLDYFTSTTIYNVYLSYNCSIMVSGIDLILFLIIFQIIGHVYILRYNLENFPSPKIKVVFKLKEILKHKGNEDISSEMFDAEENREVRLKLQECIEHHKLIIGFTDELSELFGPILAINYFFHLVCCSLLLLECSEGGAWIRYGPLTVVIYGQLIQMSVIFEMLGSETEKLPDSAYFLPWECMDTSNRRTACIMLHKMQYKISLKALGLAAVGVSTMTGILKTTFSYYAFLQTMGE
T4 sequence (A0A0E4B591 1-474 partner): T1 sequence (A0A0E4B591 1-474 partner)

Another test deals with T5, OfurOR6 (Ostrinia furnacalis, UniProt M4NL06).
T5 construct: gene OR6; full-length ORF from male antennal cDNA, untagged, in PT7TS; cRNA co-injected 1:1 with OfurOrco in Xenopus oocytes; naming of Yang et al. 2015; with Odorant receptor co-receptor (Orco)
T5 sequence (M4NL06 1-421): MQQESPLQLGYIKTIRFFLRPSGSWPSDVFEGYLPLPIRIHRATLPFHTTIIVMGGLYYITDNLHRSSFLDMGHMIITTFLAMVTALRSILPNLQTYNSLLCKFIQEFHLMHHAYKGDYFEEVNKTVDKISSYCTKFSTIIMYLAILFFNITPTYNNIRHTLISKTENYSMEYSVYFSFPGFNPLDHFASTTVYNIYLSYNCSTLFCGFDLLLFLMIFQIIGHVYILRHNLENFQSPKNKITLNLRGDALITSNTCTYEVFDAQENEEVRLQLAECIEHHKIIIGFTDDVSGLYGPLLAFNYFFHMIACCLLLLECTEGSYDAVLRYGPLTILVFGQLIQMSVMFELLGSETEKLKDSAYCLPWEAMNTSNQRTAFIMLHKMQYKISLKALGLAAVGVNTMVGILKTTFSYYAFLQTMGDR
T5 sequence (A0A0E4B591 1-474 partner): T1 sequence (A0A0E4B591 1-474 partner)

Consider `CCCC/C=C\CCCCCCCCOC(C)=O` [Z9-14:OAc, (Z)-9-tetradecenyl acetate], for which the “current at 100 μM” value at OfurOR4 is “inhibited the response of Z9-14:OAc, Z11-14:OAc, and E11-14:OAc”; on OfurOR7, 212.2 ± 46.3 nA; on OfurOR5b, “OfurOR5b broadly tuned to Z9-14:OAc, E11-14:OAc, Z11-14:OAc, E12-14:OAc, and Z12-14:OAc”; on OfurOR8 it was 8.5 ± 5.2 nA.
On to `C/C=C\CCCCCCCCCCCOC(C)=O` [Z12-14:OAc, (Z)-12-tetradecenyl acetate], for which the “current at 100 μM” value on OfurOR4 was 1876.8 ± 165 nA; on OfurOR5b it was “OfurOR5b broadly tuned to Z9-14:OAc, E11-14:OAc, Z11-14:OAc, E12-14:OAc, and Z12-14:OAc”.
Turning to `C/C=C/CCCCCCCCCCCOC(C)=O` [E12-14:OAc, E-12-tetradecenyl acetate], the “current at 100 μM” value at OfurOR4 (standard order of application (response depends on order)) is 727.9 ± 120.4 nA; on OfurOR6, 140.7 ± 6.0 nA; on OfurOR5b, “OfurOR5b broadly tuned to Z9-14:OAc, E11-14:OAc, Z11-14:OAc, E12-14:OAc, and Z12-14:OAc”.
On to `CC/C=C\CCCCCCCCCCOC(C)=O` [Z11-14:OAc, (Z)-11-tetradecenyl acetate], for which the “current at 100 μM” value at OfurOR4 was “inhibited the response of Z9-14:OAc, Z11-14:OAc, and E11-14:OAc”; at OfurOR5b it was “OfurOR5b broadly tuned to Z9-14:OAc, E11-14:OAc, Z11-14:OAc, E12-14:OAc, and Z12-14:OAc”; on OfurOR8, 76.8 ± 14.1 nA.
Take `CC/C=C/CCCCCCCCCCOC(C)=O` [E11-14:OAc, (E)-11-tetradecenyl acetate]: the “current at 100 μM” value was “inhibited the response of Z9-14:OAc, Z11-14:OAc, and E11-14:OAc” at OfurOR4; “OfurOR5b broadly tuned to Z9-14:OAc, E11-14:OAc, Z11-14:OAc, E12-14:OAc, and Z12-14:OAc” on OfurOR5b; 144.6 ± 28.3 nA on OfurOR8.

These data come from PMC5974041, “Functional Studies of Sex Pheromone Receptors in Asian Corn Borer Ostrinia furnacalis” (Frontiers in Physiology, 2018).
